Reference: ChEMBL document CHEMBL1777793, “Synthesis of biotinylated muramyl tripeptides with NOD2-stimulating activity” (Bioorg Med Chem Lett, 2011)
Calls of active or inactive are those of the source. The rule behind the calls is not given here.

Biological target: Nucleotide-binding oligomerization domain-containing protein 2 (Homo sapiens) (UniProt Q9HC29)
Experiment: Activation of NOD2 expressed in HEK293 cells assessed as increase in IL8 secretion measured at 0.01 to 0.7 uM after 18 hrs by ELISA
Type: cell-based

Chain of Nucleotide-binding oligomerization domain-containing protein 2 (Homo sapiens) (Q9HC29 whole entry, the tested form may be a part): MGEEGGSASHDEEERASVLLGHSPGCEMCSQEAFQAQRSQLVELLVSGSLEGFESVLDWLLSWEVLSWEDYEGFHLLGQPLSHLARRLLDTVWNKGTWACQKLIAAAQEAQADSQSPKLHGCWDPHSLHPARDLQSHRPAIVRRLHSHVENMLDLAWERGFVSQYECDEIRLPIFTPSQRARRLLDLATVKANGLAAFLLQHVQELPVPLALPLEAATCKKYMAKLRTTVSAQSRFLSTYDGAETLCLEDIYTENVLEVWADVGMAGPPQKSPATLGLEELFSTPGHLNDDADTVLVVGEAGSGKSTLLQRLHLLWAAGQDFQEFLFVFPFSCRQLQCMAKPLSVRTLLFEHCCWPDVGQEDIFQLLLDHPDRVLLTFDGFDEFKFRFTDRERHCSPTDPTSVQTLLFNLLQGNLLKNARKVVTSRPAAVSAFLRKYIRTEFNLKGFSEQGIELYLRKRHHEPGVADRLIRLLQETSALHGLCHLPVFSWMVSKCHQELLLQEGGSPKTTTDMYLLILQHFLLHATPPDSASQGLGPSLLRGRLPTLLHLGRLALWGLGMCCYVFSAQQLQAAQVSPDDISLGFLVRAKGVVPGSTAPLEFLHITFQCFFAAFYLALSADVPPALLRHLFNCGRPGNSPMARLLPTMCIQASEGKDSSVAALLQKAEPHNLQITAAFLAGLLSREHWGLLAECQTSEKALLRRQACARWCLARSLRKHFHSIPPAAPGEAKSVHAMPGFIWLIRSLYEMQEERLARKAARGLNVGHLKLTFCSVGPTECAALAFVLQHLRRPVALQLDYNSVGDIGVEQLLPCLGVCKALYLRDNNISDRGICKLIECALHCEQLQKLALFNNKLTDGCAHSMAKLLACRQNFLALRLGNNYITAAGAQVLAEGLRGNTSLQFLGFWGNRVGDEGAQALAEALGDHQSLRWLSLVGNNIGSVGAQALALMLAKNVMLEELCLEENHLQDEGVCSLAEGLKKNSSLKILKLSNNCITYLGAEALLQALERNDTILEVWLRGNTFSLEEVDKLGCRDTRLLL

| SMILES | Activity |
| --- | --- |
| CC(=O)N[C@H]1[C@@H](OP(=O)(O)OP(=O)(O)OC[C@H]2O[C@@H](n3ccc(=O)[nH]c3=O)[C@H](O)[C@@H]2O)O[C@H](CO)[C@@H](O)[C@@H]1O[C@H](C)C(=O)N[C@@H](C)C(=O)N[C@H](CCC(=O)N[C@@H](CCC[C@@H](NC(=O)CCCC[C@@H]1SC[C@@H]2NC(=O)N[C@@H]21)C(=O)O)C(=O)O)C(=O)O | Active |
| CC(=O)N[C@H]1C(O)O[C@H](CO)[C@@H](O)[C@@H]1O[C@H](C)C(=O)N[C@@H](C)C(=O)N[C@H](CCC(=O)N[C@@H](CCC[C@@H](N)C(=O)O)C(=O)O)C(=O)O (some centres not stated) | inactive |
| CC(=O)N[C@H]1C(O)O[C@H](CO)[C@@H](O)[C@@H]1O[C@H](C)C(=O)N[C@@H](C)C(=O)N[C@H](CCC(=O)O)C(N)=O (some centres not stated) | Active |
| CC(=O)N[C@H]1C(O)O[C@H](CO)[C@@H](O)[C@@H]1O[C@H](C)C(=O)N[C@@H](C)C(=O)N[C@H](CCC(=O)N[C@@H](CCCCN)C(=O)O)C(=O)O (some centres not stated) | Active |
| CC(=O)N[C@H]1C(O)O[C@H](CO)[C@@H](O)[C@@H]1O[C@H](C)C(=O)N[C@@H](C)C(=O)N[C@H](CCC(=O)N[C@@H](CCC[C@@H](NC(=O)CCCC[C@@H]1SC[C@@H]2NC(=O)N[C@@H]21)C(=O)O)C(=O)O)C(=O)O (some centres not stated) | inactive |
| CC(=O)N[C@H]1[C@@H](OP(=O)(O)OP(=O)(O)OC[C@H]2O[C@@H](n3ccc(=O)[nH]c3=O)[C@H](O)[C@@H]2O)O[C@H](CO)[C@@H](O)[C@@H]1O[C@H](C)C(=O)N[C@@H](C)C(=O)N[C@H](CCC(=O)N[C@@H](CCC[C@@H](N)C(=O)O)C(=O)O)C(=O)O | Active |
| CC(=O)N[C@H]1[C@@H](OP(=O)(O)OP(=O)(O)OC[C@H]2O[C@@H](n3ccc(=O)[nH]c3=O)[C@H](O)[C@@H]2O)O[C@H](CO)[C@@H](O)[C@@H]1O[C@H](C)C(=O)N[C@@H](C)C(=O)N[C@H](CCC(=O)N[C@@H](CCCCNC(=O)CCCC[C@@H]1SC[C@@H]2NC(=O)N[C@@H]21)C(=O)O)C(=O)O | Active |
| CC(=O)N[C@H]1C(O)O[C@H](CO)[C@@H](O)[C@@H]1O[C@H](C)C(=O)N[C@@H](C)C(=O)N[C@H](CCC(=O)N[C@@H](CCCCNC(=O)CCCC[C@@H]1SC[C@@H]2NC(=O)N[C@@H]21)C(=O)O)C(=O)O (some centres not stated) | Active |
| CC(=O)N[C@H]1[C@@H](OP(=O)(O)OP(=O)(O)OC[C@H]2O[C@@H](n3ccc(=O)[nH]c3=O)[C@H](O)[C@@H]2O)O[C@H](CO)[C@@H](O)[C@@H]1O[C@H](C)C(=O)N[C@@H](C)C(=O)N[C@H](CCC(=O)N[C@@H](CCCCN)C(=O)O)C(=O)O | Active |
| CC(=O)N[C@H]1[C@@H](OP(=O)(O)OP(=O)(O)OC[C@H]2O[C@@H](n3ccc(=O)[nH]c3=O)[C@H](O)[C@@H]2O)O[C@H](CO)[C@@H](O)[C@@H]1O[C@H](C)C(=O)N[C@@H](C)C(=O)N[C@H](CCC(=O)N[C@@H](CCCCNC(=O)CCCCCNC(=O)CCCCCNC(=O)CCCC[C@@H]1SC[C@@H]2NC(=O)N[C@@H]21)C(=O)O)C(=O)O | Active |
| CC(=O)N[C@H]1C(O)O[C@H](COC(=O)CCCCCNC(=O)CCCCCNC(=O)CCCCCNC(=O)CCCC[C@@H]2SC[C@@H]3NC(=O)N[C@@H]32)[C@@H](O)[C@@H]1O[C@H](C)C(=O)N[C@@H](C)C(=O)N[C@H](CCC(=O)O)C(N)=O (some centres not stated) | Active |
| CC(=O)N[C@H]1C(O)O[C@H](CO)[C@@H](O)[C@@H]1O[C@H](C)C(=O)N[C@@H](C)C(=O)N[C@H](CCC(=O)N[C@@H](CCCCNC(=O)CCCCCNC(=O)CCCCCNC(=O)CCCC[C@@H]1SC[C@@H]2NC(=O)N[C@@H]21)C(=O)O)C(=O)O (some centres not stated) | Active |
